Experimental data from US5593965A, “Anti-tumor effects of GnRH-III” (Creighton University, priority 1994, dated 1997).
“Also recorded” adds a separate entry of the source.

Experiments:
ovulation in rats [1] = assay: In vivo assay of inhibition of ovulation (chemical castration); parameters: species or system rat
Experimental: Adult female rates(Wistar-R-Amsterdam), 200-250 grams, housed under controlled lighting (light period 05:00 to 19:00) with free access to pelleted food and tap water were used herein. For the in vivo assay of inhibition of ovulation, aliquots of peptide solutions were injected subcutaneously into female rats at noon on the day of proestrous for single-dose tests and every day at noon for long term tests. Only rats which had previously shown three consecutive regular 4-day cycles, as indicated by vaginal smears test, were used herein. Animals were ovariectomized on the day of the first diestrous after the injection. Oviducts were prepared under stereo-microscope and tested for ova as is well known in the art.

rat pituitary cells = assay: Superfused rat pituitary cell system (LH release); type: cell-based
Experimental: The GnRH activity of the peptides were assayed by using the superfused rat pituitary cell system as described by Vigh and Schally, Peptides, 5:241-247, Suppl. 1, (1984) and Csernus and Schally, Neuroendocrine Research Methods, Greenstein, B., ed., Harwood Academic Publishers, London, pp66-102 (1985). Mixed cell populations of four regularly cycling female rats, at random stages of the estrous cycle, were used in each chamber of a superfusion apparatus. The cells were perfused for 12 hours with Medium 199 (Sigma) at a flow rate of 20 ml/hour, prior to administration of the peptides. […] The peptide-containing solutions are prepared from the stock solution immediately before use. At the beginning of each experiment, cells were rechallenged with potassium to check the secretability of Luteinizing Hormone, independent of the participation of specific hormone recptors. Fractions, 1 ml per 3 minutes, were collected and the concentration of Luteinzing Hormone was determined by radioimmunoassay. NIAMD radioimmunoassay kits were used for the Luteinizing Hormone and Follicle Stimulating Hormone assays. The superfusion data was analyzed by the computer program of Csernus and Schally (1985).

MDA-MB-231 cell line = type: cell-based, human; details: dose range 1-50 μM
Description: (§1) Two human breast cancer cell lines were used. They were: (1) the estrogen receptor positive MCF-7 cell line and (2) the estrogen receptor negative MDA-MB-231 cell line. Both cell lines contain GnRH receptors. These cell lines were used to illustrate the anticancer effects of GnRH-III. The cells were maintained in Dulbecco-modified Eagle-minimal essential medium (DMEM, GIBCO) containing 10% fetal calf serum (10% FCS). The clonogenic assay provides information on the cell damaging effects of a substance in a dose-dependent manner. Three hundred cells were transferred into 35 mm Petri dishes in 2.5 ml of medium. On the following day, the cultures were treated with 1, 5, 10, 20, 30 and 50 μM doses of GnRH-III. Colonies which developed from specific cells were stained with crystal violet and counted on days 8 to 12 after treatment. Colony numbers of untreated control cultures were counted for comparison.

MCF-7 cell line = type: cell-based, human; details: dose range 1-50 μM
Description: as §1

[2] = system: human breast cancer cell lines; type: cell-based
Description: as §1, with “comparison. The antiproliferation assay used herein measures the inhibition of cell proliferation due to drug exposure. Loose subconfluent cultures (6×10^5 -1×10^6 cells) in 100 mm Petri dishes were initiated and treated with 1, 5, 10, 20, 30 and 50 μM doses of GnRH-III on every other day for various periods of time. On day 6, the cell numbers of both control and treated cultures were counted in a Neubauer-type hemocytometer.” for “comparison.”

ovulation in rats [3] = details: cited from earlier work

## NCCCC[C@H](NC(=O)[C@H](Cc1c[nH]c2ccccc12)NC(=O)[C@H](CC(=O)O)NC(=O)[C@H](Cc1c[nH]cn1)NC(=O)[C@H](CO)NC(=O)[C@H](Cc1c[nH]c2ccccc12)NC(=O)[C@H](Cc1c[nH]cn1)NC(=O)[C@@H]1CCC(=O)N1)C(=O)N1CCC[C@H]1C(=O)NCC(N)=O [GnRH-III]
Ovulation in rats [1]; female rats, subcutaneous, doses of 10^-9 to 10^-7 M
  influence on ovulation: no influence on ovulation
Ovulation in rats [1]; rats
  function of gonads: did not influence the function of gonads; also recorded: does not influence gonadal function
Ovulation in rats [1]; rats, repeated injections
  histology of ovary: did not change histology of ovary; also recorded: did not change the histological character of ovary
Rat pituitary cells; 10^-6 M
  LH release at high concentration: did cause LH release
Rat pituitary cells; doses of 10^-9 to 10^-7 M
  agonist/antagonist character in mammalian pituitary gland: neither agonist, nor antagonist
MDA-MB-231 cell line
  colony formation: inhibited colony formation
MCF-7 cell line
  colony formation: inhibited colony formation
[2]; at 30 μM
  decrease in cloning efficiency: 65-80%
[2]; in vitro, human breast cancer cell lines
  anticancer activity compared with other GnRH analogs: surpass that of the well known agonists Buserelin, Decapeptyl and Ovurelin, and to approximate that of the antagonists SB-30 and MI-1544

## [B-Asp(α-diethylamide^6 ],Gln^8)GnRH [TH-332, reference compound]
MDA-MB-231 cell line
  colony formation: did not inhibit colony formation
MCF-7 cell line
  colony formation: did not inhibit colony formation

## human GnRH: hypothalamic peptide hormone stimulating release of Luteinizing Hormone and Follicle Stimulating Hormone (QHWSYGLRPG; Gonadoliberin-1; UniProt P01148 24-33, looked up) [reference compound]
Ovulation in rats [3]
  effective doses on ovulation: 10^-9 to 10^-7 M
Rat pituitary cells; doses 10^-9 -10^-7 M
  induction of LH release: did not induce Luteinizing Hormone (LH)-release
  inhibition of LH release induced by native GnRH: neither did it inhibit the LH-release induced by native GnRH
